In brackets after ≈: the same amount, converted by molar mass. Read-outs that look alike come from different tables or passages of the source. Peptide text beside a SMILES is read from it.
Experiments:
MDR P. aeruginosa PA 910 = assay: microbe, parasite or virus in culture; assay type: cell-based, Pseudomonas aeruginosa; conditions: for MIC: Pseudomonas aeruginosa
Method in brief: (§1)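 Clinical and municipal waste-water MDR isolates were tested by broth microdilution in Mueller-Hinton broth with twofold serial dilutions at 2–5 10^5 CFU/ml. Plates were incubated 18 h at 37°C in polypropylene plates. MIC was read visually.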

MDR P. aeruginosa PA253 = assay: microbe, parasite or virus in culture; assay type: cell-based, Pseudomonas aeruginosa; conditions: microdilution, Mueller-Hinton broth, 18 h at 37°C, read visually; for MIC: conventional antibiotics, 2–5 10^5 CFU/ml, at least three repeats (n = 3)
Method in brief: as §1

MDR P. aeruginosa PA 919 = assay: microbe, parasite or virus in culture; assay type: cell-based, Pseudomonas aeruginosa; conditions: microdilution, Mueller-Hinton broth, 18 h at 37°C, read visually; for MIC: conventional antibiotics, 2–5 10^5 CFU/ml, at least three repeats (n = 3)
Method in brief: as §1

P. aeruginosa PA01-wt = assay: microbe, parasite or virus in culture; assay type: cell-based, Pseudomonas aeruginosa; conditions: microdilution, Mueller-Hinton broth, 18 h at 37°C, read visually; for MIC: conventional antibiotics, 2–5 10^5 CFU/ml, at least three repeats (n = 3)
[1] = test system: MDR isolate of P. aeruginosa (PA 910); conditions: checkerboard, MHb
MDR-PA253 = assay type: cell-based, Pseudomonas aeruginosa; conditions: peptide + polymyxin B; checkerboard; strain comparison (Table 7)
Method: (§2) The checkerboard assay was used to determine the fractional inhibitory concentrations (FICs), following the protocol described in Koneman’s Color Atlas and Textbook of Diagnostic Microbiology ([Winn et al., 2006]). Briefly, combinations of peptides and antibiotics were prepared in 96-well plates (polypropylene, Corning) in a twofold dilution series. After the addition of a log-phase bacterial inoculum of 2–5 × 10^5 CFU/ml, plates were incubated at 37°C for 18 h. The FICs were determined by visual inspection and the effects of the combinations were determined using the FICs. The FIC was computed by adding two partial FIC values, FICA—the MIC of drug A, tested in combination with drug B divided by the MIC of drug A, tested alone and FICB—the MIC of drug B, tested in combination with drug A divided by the MIC of drug B, tested alone [FIC = FICA + FICB = (MICAB/MICA) + (MICBA/MICB), where MICA and MICB are the MICs of drugs A and B alone, respectively, and MICAB and MICBA are the MIC concentrations of the drugs in combination]. […]

MDR-PA919 = assay type: cell-based, Pseudomonas aeruginosa; conditions: peptide + polymyxin B; checkerboard; strain comparison (Table 7)
Method: as §2

MDR P. aeruginosa PA 915 = assay: microbe, parasite or virus in culture; assay type: cell-based, Pseudomonas aeruginosa; conditions: conventional antibiotics, microdilution, Mueller-Hinton broth, 2–5 10^5 CFU/ml, 18 h at 37°C, read visually, at least three repeats (n = 3); for MIC: Pseudomonas aeruginosa
Method in brief: as §1

MDR P. aeruginosa PA 927 = assay: microbe, parasite or virus in culture; assay type: cell-based, Pseudomonas aeruginosa; conditions: conventional antibiotics, microdilution, Mueller-Hinton broth, 2–5 10^5 CFU/ml, 18 h at 37°C, read visually, at least three repeats (n = 3)
Method in brief: as §1

MDR P. aeruginosa PA 923 = assay: microbe, parasite or virus in culture; assay type: cell-based, Pseudomonas aeruginosa; conditions: conventional antibiotics, microdilution, Mueller-Hinton broth, 2–5 10^5 CFU/ml, 18 h at 37°C, read visually, at least three repeats (n = 3)
Method in brief: as §1

[2] = 18 h, antibiotic alone, as listed in the FIC table, read-out: MIC against PA910 in μM (antibiotics, head of Table 4)
[3] = conventional antibiotics, microdilution, Mueller-Hinton broth, 2–5 10^5 CFU/ml, 18 h at 37°C, read visually, at least three repeats (n = 3), read-out: MIC PA 910

Compound | MIC (MDR P. aeruginosa PA 910; [2]) | MIC (MDR P. aeruginosa PA 910; [3]) | MIC (MDR P. aeruginosa PA 915) | MIC (MDR P. aeruginosa PA253; Pseudomonas aeruginosa) | MIC (MDR P. aeruginosa PA 919; Pseudomonas aeruginosa) | MIC (P. aeruginosa PA01-wt; Pseudomonas aeruginosa, PA01WT) | MIC (MDR P. aeruginosa PA 927; Pseudomonas aeruginosa) | MIC (MDR P. aeruginosa PA 923; Pseudomonas aeruginosa) | other results
CC[C@H](C)[C@H](NC(=O)[C@H](CCCNC(=N)N)NC(=O)[C@H](C)NC(=O)[C@H](CC(C)C)NC(=O)[C@@H](N)CCCNC(=N)N)C(=O)N[C@H](C(=O)N[C@H](C(=O)N[C@H](C(=O)N[C@@H](CCCNC(=N)N)C(=O)N[C@H](C(=O)N[C@@H](CCCNC(=N)N)C(=O)N[C@@H](CCCNC(=N)N)C(N)=O)C(C)C)[C@@H](C)CC)C(C)C)C(C)C [Peptide R11] (H-RLARIVVIRVRR-NH2) |  |  |  |  |  |  |  |  | MIC against PA910 in μM (peptides, Table 4) (MDR P. aeruginosa PA 910; peptide alone, as listed in the FIC table): 64 µM; MIC against MDR isolates of PA, PA253 (MDR P. aeruginosa PA253; short AMPs, triplicate (n = 3)): 64 µM; MIC against MDR isolates of PA, PA919 (MDR P. aeruginosa PA 919; short AMPs, triplicate (n = 3)): 32 µM; MIC against PA01 wt (P. aeruginosa PA01-wt; short AMPs, triplicate (n = 3)): 16 µM (≈ 24.1 µg/mL); FIC mean (SD), combination with KAN ([1]; confirmation study, peptide + kanamycin, Indopt versions 1/8 MHb, mean of at least three measurements (n = 3), SD in brackets): 0.75 (0.17); FIC mean (SD), combination with TET ([1]; confirmation study, peptide + tetracycline, Indopt versions 1/8 MHb, mean of at least three measurements (n = 3), SD in brackets): 0.43 (0.12); FIC, combination with AMI ([1]; peptide + amikacin, for the Indopt versions 1/8 MHb, 2–5 × 10^5 CFU/ml, 37°C, 18 h, visual, determined once (n = 1)): 2; FIC, combination with CEF ([1]; peptide + cefepime, for the Indopt versions 1/8 MHb, 2–5 × 10^5 CFU/ml, 37°C, 18 h, visual, determined once (n = 1)): 2; FIC, combination with CET ([1]; peptide + ceftazidime, for the Indopt versions 1/8 MHb, 2–5 × 10^5 CFU/ml, 37°C, 18 h, visual, determined once (n = 1)): 1; FIC, combination with CIP ([1]; peptide + ciprofloxacin, for the Indopt versions 1/8 MHb, 2–5 × 10^5 CFU/ml, 37°C, 18 h, visual, determined once (n = 1)): 0.53; FIC, combination with ERY ([1]; peptide + erythromycin, for the Indopt versions 1/8 MHb, 2–5 × 10^5 CFU/ml, 37°C, 18 h, visual, determined once (n = 1)): 0.53; FIC, combination with IMI ([1]; peptide + imipenem, for the Indopt versions 1/8 MHb, 2–5 × 10^5 CFU/ml, 37°C, 18 h, visual, determined once (n = 1)): 0.63; FIC, combination with KAN ([1]; peptide + kanamycin, for the Indopt versions 1/8 MHb, 2–5 × 10^5 CFU/ml, 37°C, 18 h, visual, determined once (n = 1)): 0.5; FIC, combination with MER ([1]; peptide + meropenem, for the Indopt versions 1/8 MHb, 2–5 × 10^5 CFU/ml, 37°C, 18 h, visual, determined once (n = 1)): 0.51; FIC, combination with PIP ([1]; peptide + piperacillin, for the Indopt versions 1/8 MHb, 2–5 × 10^5 CFU/ml, 37°C, 18 h, visual, determined once (n = 1)): 1; FIC, combination with PMB ([1]; peptide + polymyxin B, for the Indopt versions 1/8 MHb, 2–5 × 10^5 CFU/ml, 37°C, 18 h, visual, determined once (n = 1)): 0.63; FIC, combination with TET ([1]; peptide + tetracycline, for the Indopt versions 1/8 MHb, 2–5 × 10^5 CFU/ml, 37°C, 18 h, visual, determined once (n = 1)): 0.53; FIC, combination with TOB ([1]; peptide + tobramycin, for the Indopt versions 1/8 MHb, 2–5 × 10^5 CFU/ml, 37°C, 18 h, visual, determined once (n = 1)): 2; FIC against polymyxin B, MDR-PA253 (MDR-PA253): 0.56; FIC against polymyxin B, MDR-PA919 (MDR-PA919): 0.56
CNC(C)C1CCC(N)C(OC2C(N)CC(N)C(OC3OCC(C)(O)C(NC)C3O)C2O)O1 (stereo not drawn) [Gentamycin] | 128 µM | 128 µM (≈ 61.1 µg/mL) | 128 to 256 µM (≈ 61.1 to 122 µg/mL) | > 256 µM | 128 µM (≈ 61.1 µg/mL) | 1 µM (≈ 0.478 µg/mL) | 128 µM (≈ 61.1 µg/mL) | 128 µM (≈ 61.1 µg/mL) | 
CN(C)[C@@H]1C(O)=C(C(N)=O)C(=O)[C@@]2(O)C(O)=C3C(=O)c4c(O)cccc4[C@@](C)(O)[C@H]3C[C@@H]12 [Tetracyclin] | 64 µM | 64 µM (≈ 28.4 µg/mL) | 16 µM (≈ 7.11 µg/mL) | 32 µM (≈ 14.2 µg/mL) | 32 µM (≈ 14.2 µg/mL) | 8 µM (≈ 3.56 µg/mL) | 16 µM (≈ 7.11 µg/mL) | > 512 µM | 
Kanamycin |  |  |  |  |  |  |  |  | MIC against PA910 in μM (antibiotics, head of Table 4) (MDR P. aeruginosa PA 910; antibiotic alone, as listed in the FIC table): 128 to 256 µM; MIC PA 910 (MDR P. aeruginosa PA 910; conventional antibiotics, microdilution, Mueller-Hinton broth, 2–5 10^5 CFU/ml, 18 h at 37°C, read visually, at least three repeats (n = 3)): 128 to 256 µM; MIC PA 915 (MDR P. aeruginosa PA 915): 256 to 512 µM; MIC (MDR P. aeruginosa PA253): >512 µM; MIC (MDR P. aeruginosa PA 919): 128 µM; MIC (P. aeruginosa PA01-wt): 64 µM; MIC (MDR P. aeruginosa PA 927): 128 µM; MIC (MDR P. aeruginosa PA 923): 256 µM

Continued, in another order:

MIC (MDR P. aeruginosa PA 910; [2]) | MIC (MDR P. aeruginosa PA 910; [3]) | MIC (MDR P. aeruginosa PA 915) | MIC (MDR P. aeruginosa PA253; Pseudomonas aeruginosa) | MIC (MDR P. aeruginosa PA 919; Pseudomonas aeruginosa) | MIC (P. aeruginosa PA01-wt; Pseudomonas aeruginosa, PA01WT) | MIC (MDR P. aeruginosa PA 927; Pseudomonas aeruginosa) | MIC (MDR P. aeruginosa PA 923; Pseudomonas aeruginosa) | Compound | other results
128 µM | 128 µM (≈ 93.9 µg/mL) | 64 µM (≈ 47 µg/mL) | 64 µM (≈ 47 µg/mL) | 128 µM (≈ 93.9 µg/mL) | 128 µM (≈ 93.9 µg/mL) | 16 µM (≈ 11.7 µg/mL) | 256 µM (≈ 188 µg/mL) | CC[C@H]1OC(=O)[C@H](C)[C@@H](O[C@H]2C[C@@](C)(OC)[C@@H](O)[C@H](C)O2)[C@H](C)[C@@H](O[C@@H]2O[C@H](C)C[C@H](N(C)C)[C@H]2O)[C@](C)(O)C[C@@H](C)C(=O)[C@H](C)[C@@H](O)[C@]1(C)O [Erythromycin] | 
32 µM | 32 µM (≈ 15 µg/mL) | 64 µM (≈ 29.9 µg/mL) | 64 µM (≈ 29.9 µg/mL) | 64 µM (≈ 29.9 µg/mL) | 0.25 to 0.5 µM (≈ 0.117 to 0.234 µg/mL) | 32 µM (≈ 15 µg/mL) | 32 µM (≈ 15 µg/mL) | NC[C@H]1O[C@H](O[C@H]2[C@H](O)[C@@H](O[C@H]3O[C@H](CO)[C@@H](O)[C@H](N)[C@H]3O)[C@H](N)C[C@@H]2N)[C@H](N)C[C@@H]1O [Tobramycin] | 
64 µM | 128 µM (≈ 70 µg/mL) | 4 µM (≈ 2.19 µg/mL) | > 128 µM | 8 µM (≈ 4.37 µg/mL) | 4 µM (≈ 2.19 µg/mL) | > 128 µM | 128 µM (≈ 70 µg/mL) | CC(C)(O/N=C(\C(=O)N[C@@H]1C(=O)N2C(C(=O)[O-])=C(C[n+]3ccccc3)CS[C@H]12)c1csc(N)n1)C(=O)O [Ceftazidime] | 
> 128 µM | > 128 µM | > 128 µM | > 128 µM | 16 µM (≈ 4.79 µg/mL) | 2 µM (≈ 0.599 µg/mL) | > 128 µM | > 128 µM | C[C@@H](O)[C@H]1C(=O)N2C(C(=O)O)=C(SCCN=CN)C[C@H]12 [Imipenem] | 
128 µM | 64 µM (≈ 30.8 µg/mL) | 32 µM (≈ 15.4 µg/mL) | > 128 µM | 16 µM (≈ 7.69 µg/mL) | 8 µM (≈ 3.84 µg/mL) | 128 µM (≈ 61.5 µg/mL) | 64 µM (≈ 30.8 µg/mL) | CO/N=C(\C(=O)N[C@@H]1C(=O)N2C(C(=O)[O-])=C(C[N+]3(C)CCCC3)CS[C@H]12)c1csc(N)n1 [Cefepime] | 

From publication PMC6901909, “Synergy Pattern of Short Cationic Antimicrobial Peptides Against Multidrug-Resistant Pseudomonas aeruginosa” (Frontiers in Microbiology, 2019)
